Reference: ChEMBL document CHEMBL1151619, “Structure and conformation of two new dolabellane-based diterpenes from Dictyota sp” (J Nat Prod, 1984)
The source made the active and inactive calls. No cut-off for these calls is given here.

Tested on: KB
Test: Cytotoxicity against human KB cells
Assay type: functional, cell-based

C=C(C)[C@@H]1CC[C@]2(C)C[C@H](OC(C)=O)/C(CO)=C/CC/C(C)=C/C[C@@H]12
Activity: Active
